Measurements reported in patent US5445951A, “Regioselective enzymatic deacylation of sucrose esters in anhydrous organic media” (priority 1993, dated 1995).
Read-outs that look alike come from different tables or passages of the source.

Legend:
lipase AY 30 [1] = assay: Effect of the solvent on lipase AY 30 catalyzed deacylation of SOP; format: biochemical, Candida cylindracea; settings: for ShexaP (4.2 min) / SheptaP's (8.9 min) / SheptaP's (9.4 min) / SheptaP's ([…]): lipase AY 30, 24 hrs; for ShexaP (4.2 min): HPLC peak 4.2 min; for SheptaP's (8.9 min): HPLC peak 8.9 min; for SheptaP's (9.4 min): HPLC peak 9.4 min; for SheptaP's ([…]): HPLC peak […]; for SOA: lipase AY 30, solvent as labelled, 200 mM butanol, 24 hrs, peak 21.4 min; for SheptaP's ([…]): HPLC peak 8.2 min
Procedure: Identical SOP deacylations were performed with lipase AY 30 or protease type XXIII in numerous anhydrous organic solvents, as shown in Tables 12 and 13.
(§1) Solvent screening for SOP deacylation. A scintillation vial was charged successively with 100 mg of lipase AY 30 or protease type XXIII as described and 1.0 ml of 20 mM sucrose octapropionate (SOP) and 200mM butanol dissolved in an organic solvent. Following a 5 sec sonication, the vial was incubated in a controlled-temperature shaker at 45° C. and 300 RPM for 24 hrs. A 200 μl aliquot of the reaction mixture was withdrawn and centrifuged. The supernatant was collected and evaporated under a stream of N2. The residue was reconstituted in 200 μl of acetonitrile and 10 μl of this solution was analyzed by HPLC.

[2] = n-octanol/water, cited from earlier work
proleather = assay: Solvent effect on proleather catalyzed deacetylation of SOA; format: biochemical, Bacillus subtilis; settings: 24 hrs; for SheptaA: total of 1'-OH and 6'-OH heptaacetates; for SOA / ShexaA: solvent as labelled
Procedure: (§2) Identical enzyme catalyzed SOA deacetylations were run in numerous anhydrous solvents. After 24 hrs incubation an aliquot was analyzed by HPLC.
(§3) The pH of commercial powdered enzymes was adjusted in the following way: The enzyme (3 g) was dissolved in 25 ml of an appropriate buffer and the pH adjusted with dilute NaOH or citric/phosphoric acid solution. Cold acetone (37.5 ml at -20° C.) was added and the precipitate collected on a medium porosity glass funnel and dried overnight at 2 millitorr. The protein pellet was ground to a fine powder and equilibrated at 4° C. over saturated aqueous potassium carbonate (RH: 43%) for 24 hrs.
as §1, with “Enzyme and Solvent” for “Solvent”, “Screening” for “screening”, “SOA Deacetylation.” for “SOP deacylation.”, “powdered enzyme as received” for “lipase AY 30”, “prepared” for “protease type XXIII”, “octaacetate (SOA)” for “octapropionate (SOP) and 200mM butanol”

alcalase = target: T1, alcalase (Bacillus licheniformis, UniProt P00780); assay: Solvent effect on alcalase catalyzed deacetylation of SOA; format: biochemical; settings: 24 hrs; for SheptaA: total of 1'-OH and 6'-OH heptaacetates; for SOA / ShexaA: solvent as labelled
T1 construct: purchased Novo Nordisk (gift)
T1 sequence (P00780 106-379): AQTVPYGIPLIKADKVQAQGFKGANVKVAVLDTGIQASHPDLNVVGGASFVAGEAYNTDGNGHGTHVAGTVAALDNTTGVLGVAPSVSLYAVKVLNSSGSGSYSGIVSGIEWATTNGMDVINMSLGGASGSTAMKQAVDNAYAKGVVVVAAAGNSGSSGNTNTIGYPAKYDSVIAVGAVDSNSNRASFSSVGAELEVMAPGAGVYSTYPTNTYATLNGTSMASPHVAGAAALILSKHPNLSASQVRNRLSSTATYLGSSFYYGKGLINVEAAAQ
Procedure: as §2
Enzyme Precipitation. Alcalase was prepared by adding 37.5 ml cold acetone (-20° C.) to 25 ml of alcalase solution as supplied by Novo. The aqueous acetone was decanted and the residue dissolved in 25 ml of pH 9.0 glycine--NaOH buffer. The pH of this solution was adjusted to 9.0 with a few drops of dilute NaOH solution. Cold acetone (37.5 ml at -20° C.) was added to the buffered alcalase solution and the precipitate collected by filtration on a medium porosity glass funnel and dried overnight at 2 millitorr. The resulting pellet was ground to a fine powder and stored at 4° C. over saturated aqueous potassium carbonate (RH: 43%) for 24 hrs.
as §1, with “Enzyme and Solvent” for “Solvent”, “Screening” for “screening”, “SOA Deacetylation.” for “SOP deacylation.”, “powdered enzyme as received” for “lipase AY 30”, “prepared” for “protease type XXIII”, “octaacetate (SOA)” for “octapropionate (SOP) and 200mM butanol”

[3] = test system: lipase AY 30 deposited on Hyflo Super Cell; assay: Solvent effect on lipase AY 30 deposited on Hyflo Super Cell catalyzed deacetylation of SOA; format: biochemical, Candida cylindracea; settings: immobilized lipase AY 30, 24 hrs
Procedure: (§4) Alcalase and lipase AY 30 were deposited on Hyflo Super Cell and used as catalysts for SOA deacetylation reactions in several anhydrous solvents.
(§5) Enzyme immobilization. The pH of a solution of 900 mg of buffered alcalase in 18 ml of water was adjusted to 9.0 with dilute NaOH. Hyflo super cell (6 g) was added and the slurry thoroughly mixed. […] Lipase AY 30 was immobilized in the same manner except that the protein solution was adjusted to pH 7.0 with sodium phosphate.
as §1, with “Enzyme and Solvent” for “Solvent”, “Screening” for “screening”, “SOA Deacetylation.” for “SOP deacylation.”, “powdered enzyme as received” for “lipase AY 30”, “prepared” for “protease type XXIII”, “octaacetate (SOA)” for “octapropionate (SOP) and 200mM butanol”

lipase AP 12 = assay: Solvent effect on lipase AP 12 catalyzed deacetylation of SOA; format: biochemical, Aspergillus niger; settings: lipase AP 12, solvent as labelled, 24 hrs
Procedure: as §2, §3
as §1, with “Enzyme and Solvent” for “Solvent”, “Screening” for “screening”, “SOA Deacetylation.” for “SOP deacylation.”, “powdered enzyme as received” for “lipase AY 30”, “prepared” for “protease type XXIII”, “octaacetate (SOA)” for “octapropionate (SOP) and 200mM butanol”

[4] = test system: alcalase deposited on Hyflo Super Cell; assay: Solvent effect on alcalase deposited on Hyflo Super Cell catalyzed deacetylation of SOA; format: biochemical, Bacillus licheniformis; settings: immobilized alcalase, 4 hour incubation; for SheptaA: total of 1'-OH and 6'-OH heptaacetates
Procedure: as §4, §5
Enzyme and Solvent Screening for SOA Deacetylation. A scintillation vial was charged successively with 100 mg of powdered enzyme as received or prepared as described and 1.0 ml of 20 mM sucrose octaacetate (SOA) dissolved in an organic solvent. […] A 200 μl aliquot of the reaction mixture was withdrawn and centrifuged. The supernatant was collected and evaporated under a stream of N2. The residue was reconstituted in 200 μl of acetonitrile and 10 μl of this solution was analyzed by HPLC.

lipase AY 30 [5] = assay: Effect of the solvent on lipase AY 30 SOA deacetylation; format: biochemical, Candida cylindracea; settings: lipase AY 30, solvent as labelled, 24 hrs
Procedure: as §2
Enzyme and Solvent Screening for SOA Deacetylation. A scintillation vial was charged successively with 100 mg of powdered enzyme as received or prepared as described and 1.0 ml of 20 mM sucrose octaacetate (SOA) dissolved in an organic solvent. Following a 5 sec sonication, the vial was incubated in a controlled-temperature shaker at 45° C. and 300 RPM for 24 hrs. A 200 μl aliquot of the reaction mixture was withdrawn and centrifuged. The supernatant was collected and evaporated under a stream of N2. The residue was reconstituted in 200 μl of acetonitrile and 10 μl of this solution was analyzed by HPLC.

SMILES	ShexaP (4.2 min) (lipase AY 30 [1])	SheptaP's (8.9 min) (lipase AY 30 [1])	SheptaP's (9.4 min) (lipase AY 30 [1])	SheptaP's ([…]) (lipase AY 30 [1])	SOA (lipase AY 30 [1])	SOA (lipase AY 30 [5])	SheptaA (lipase AY 30 [5])	ShexaA (lipase AY 30 [5])	log P ([2]; from Laane et al.)	also measured
CCCCCCCCO [octanol]	0%	0%	1.1%	1.8%	97.1%					log P [2]: 3.0
C1CCOC1 [THF, tetrahydrofuran]	0.3%	0%	0.1%	1.6%	98.0%	98.7%	1.3%	0%		SheptaA (proleather): 2.6%; SOA (proleather): 97.4%; ShexaA (proleather): 0%; SheptaA (alcalase): 2.0%; SOA (alcalase): 98.0%; ShexaA (alcalase): 0%; SOA [3]: 98. %; SheptaA [3]: 2.0%; SOA (lipase AP 12): 98.4%; SheptaA (lipase AP 12): 1.6%; ShexaA (lipase AP 12): 0%; SOA [4]: 97.3%; ShexaA [4]: 0%; SheptaA [4]: 2.7%
c1ccccc1 [benzene]						97.9%	1.7%	0.4%		SheptaA (proleather): 13.9%; SOA (proleather): 84.8%; ShexaA (proleather): 1.4%; SheptaA (alcalase): 6.7%; SOA (alcalase): 93.3%; ShexaA (alcalase): 0%; SOA [3]: 97.9%; SheptaA [3]: 2.1%; SOA (lipase AP 12): 96.6%; SheptaA (lipase AP 12): 3.4%; ShexaA (lipase AP 12): 0%; SOA [4]: 97.9%; ShexaA [4]: 0%; SheptaA [4]: 2.1%
CCCCCC [hexane]	5.8%	0.6%	5.7%	8.6%	79.3%				3.5	
CCCCCCCO [heptanol]	0%	0%	0.7%	1.4%	97.9%	93.4%	6.0%	0.6%	2.5	
Cc1ccccc1 [toluene]	0.2%	0%	1.2%	1.3%	97.3%	78.7%	16.5%	4.8%		SheptaA (proleather): 15.2%; SOA (proleather): 82.8%; ShexaA (proleather): 2.0%; SheptaA (alcalase): 6.0%; SOA (alcalase): 93.8%; ShexaA (alcalase): 0.2%; SOA [3]: 94.5%; SheptaA [3]: 5.5%; SOA (lipase AP 12): 94.2%; SheptaA (lipase AP 12): 5.8%; ShexaA (lipase AP 12): 0%; SOA [4]: 97.8%; ShexaA [4]: 0%; SheptaA [4]: 2.2%
ClC(Cl)Cl [chloroform]						86.7%	11.6%	1.7%		
CCCCCCC [heptane]	6.6%	0.5%	4.4%	8.9%	79.6%				4.0	
CCCCC(=O)CC [3-heptanone]	0%	0.8%	2.9%	3.3%	93.0%	85.1%	14.9%		1.8	
CCOC(C)(C)C [t-butyl ethyl ether]						40.8%	38.1%	21.1%	1.9	SheptaA (proleather): 2.8%; ShexaA (proleather): 0%
O=C1CCCCC1 [cyclohexanone]	0%	0%	0.3%	0.9%	98.8%	97.5%	2.5%	0%	0.96	
CCCCCOCCCCC [dipentyl ether]									3.9	
CCC(C)(C)OC [t-amyl methyl ether]						45%	37.1%	17.9%	1.9	
CCCCCCCC [octane]	7.7%	0.5%	2.9%	8.9%	80.0%				5.0	
C1CCCCC1 [cyclohexane]	2.8%	0.4%	5.2%	5.6%	86%					
CC(=O)OC(C)(C)C [t-butyl acetate]									1.7	SOA [4]: 98.2%; ShexaA [4]: 0%; SheptaA [4]: 1.8%
